Experimental data: ChEMBL document CHEMBL3112560 (Bioorg Med Chem Lett, 2014)
pIC50, pKi: −log10 of the molar value.

Legend:
Rattus norvegicus = species on record: Rattus norvegicus; assay: Inhibition of VGLUT in rat brain assessed as [3H]-L-Glu uptake into synaptic vesicles at 250 uM relative to control; assay type: tissue-based
[1] = Inhibition of VGLUT-mediated [3H]-L-Glu uptake into synaptic vesicles in rat brain; assay type: tissue-based
[2] = Competitive inhibition of VGLUT-mediated [3H]-L-Glu uptake into synaptic vesicles in rat brain by Lineweaver-Burk plot analysis; assay type: tissue-based
[3] = Inhibition of VGLUT (unknown origin); parameters: species or system Homo sapiens

Compound	inhibition (Rattus norvegicus) [%]	pIC50 [1]	pKi [2]	pKi [3]
O=C(O)c1cc(C(=O)O)c2c(ccc3cc4ccccc4cc32)n1	17	4.15	–	–
O=C(O)c1cc(C(=O)O)c2ccc3cc4ccccc4cc3c2n1	26	4.15	–	–
CC(=O)[C@H]1CC[C@H]2[C@@H]3CC[C@@H]4C[C@@H](OS(=O)(=O)O)CC[C@]4(C)[C@H]3CC[C@]12C	15	4.38	4.66	–
CC(=O)C1CCC2C3CC=C4CC(OS(=O)(=O)O)CCC4(C)C3CCC12C (centres undefined)	31	–	–	–
C[C@]12CC[C@@H]3c4ccc(O)cc4CC[C@H]3[C@@H]1CCC2=O	98	–	–	–
CC(=O)O[C@H]1CC[C@@]2(C)C(=CC[C@H]3[C@@H]4CC[C@H](C(C)=O)[C@@]4(C)CC[C@@H]32)C1	86	–	–	–
C[C@]12CC[C@@H]3c4ccc(OC(=O)CCC(=O)O)cc4CC[C@H]3[C@@H]1CCC2=O	109	–	–	–
CC(=O)[C@H]1CC[C@H]2[C@@H]3CC=C4C[C@@H](O)CC[C@]4(C)[C@H]3CC[C@]12C	100	–	–	–
N[C@@]1(C(=O)O)CC[C@@H](C(=O)O)C1	–	–	–	3.15
Cc1cc(-c2ccc(/N=N/c3c(S(=O)(=O)O)cc4cc(S(=O)(=O)O)cc(N)c4c3O)c(C)c2)ccc1/N=N/c1c(S(=O)(=O)O)cc2cc(S(=O)(=O)O)cc(N)c2c1O [TRYPAN BLUE]	–	–	–	7.30
